Test results published in US7179597B2, “Genetic diagnosis for QT prolongation related adverse drug reactions” (Georgetown University, priority 2000, dated 2007).
Entries after “also recorded” stand apart in the source; their conditions may differ. Read-outs that look alike come from different tables or passages of the source.

Experiments:
CYP2C9 = CYP2C9 (Homo sapiens, UniProt P11712); settings: Table 3; cited from earlier work
CYP3A = settings: Table 3; cited from earlier work
[1] = cited from earlier work
[2] = cited from earlier work; remark: listed apart in the source
CYP2D6 = CYP2D6 (Homo sapiens, UniProt P10635); settings: Table 3; cited from earlier work
CYP2C19 = CYP2C19 (Homo sapiens, UniProt P33261); settings: Table 3; cited from earlier work
healthy volunteers = test: ECG QTc assessment after ibutilide infusion in healthy volunteers; type: in vivo, human
Method: ECG analysis is one method of assessing arrhythmias, such as prolonged QT intervals. Ibutilide or any other pharmaceutical agent to be studied, can be assessed using an ECG. […] All ECGs were 12 lead and were recorded on a computer disc and on paper at a speed of 50 mm/sec, with the subject in a stationary, resting, supine position.

[3] = Table 2, FDA / medical literature

Chain of CYP2C19 (P33261 whole entry, the tested form may be a part): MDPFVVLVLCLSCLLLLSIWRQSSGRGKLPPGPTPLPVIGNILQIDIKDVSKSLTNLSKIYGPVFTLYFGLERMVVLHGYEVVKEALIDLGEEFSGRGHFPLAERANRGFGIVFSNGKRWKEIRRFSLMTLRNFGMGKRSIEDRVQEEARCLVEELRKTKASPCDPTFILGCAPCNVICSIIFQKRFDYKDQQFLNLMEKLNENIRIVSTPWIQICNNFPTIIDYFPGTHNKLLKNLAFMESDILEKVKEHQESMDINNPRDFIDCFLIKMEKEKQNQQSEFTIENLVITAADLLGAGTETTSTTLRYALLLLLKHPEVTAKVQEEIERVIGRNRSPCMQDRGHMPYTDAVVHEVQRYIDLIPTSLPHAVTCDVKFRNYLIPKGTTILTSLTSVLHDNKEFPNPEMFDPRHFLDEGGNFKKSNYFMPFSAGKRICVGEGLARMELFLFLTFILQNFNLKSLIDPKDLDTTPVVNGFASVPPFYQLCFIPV
Chain of CYP2D6 (P10635 whole entry): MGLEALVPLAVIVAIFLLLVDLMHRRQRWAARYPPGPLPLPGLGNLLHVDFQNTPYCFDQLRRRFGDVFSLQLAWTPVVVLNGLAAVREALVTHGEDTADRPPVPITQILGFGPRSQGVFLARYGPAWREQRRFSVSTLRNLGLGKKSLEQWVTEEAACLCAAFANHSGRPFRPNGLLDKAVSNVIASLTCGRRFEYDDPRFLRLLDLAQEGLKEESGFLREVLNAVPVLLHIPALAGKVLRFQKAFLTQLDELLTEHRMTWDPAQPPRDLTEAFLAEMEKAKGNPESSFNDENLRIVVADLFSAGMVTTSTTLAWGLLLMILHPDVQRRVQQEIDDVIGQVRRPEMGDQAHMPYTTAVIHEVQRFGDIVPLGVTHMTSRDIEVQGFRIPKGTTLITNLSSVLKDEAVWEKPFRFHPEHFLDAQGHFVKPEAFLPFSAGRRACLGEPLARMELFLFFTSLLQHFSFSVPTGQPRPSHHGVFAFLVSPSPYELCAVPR
Chain of CYP2C9 (P11712 whole entry): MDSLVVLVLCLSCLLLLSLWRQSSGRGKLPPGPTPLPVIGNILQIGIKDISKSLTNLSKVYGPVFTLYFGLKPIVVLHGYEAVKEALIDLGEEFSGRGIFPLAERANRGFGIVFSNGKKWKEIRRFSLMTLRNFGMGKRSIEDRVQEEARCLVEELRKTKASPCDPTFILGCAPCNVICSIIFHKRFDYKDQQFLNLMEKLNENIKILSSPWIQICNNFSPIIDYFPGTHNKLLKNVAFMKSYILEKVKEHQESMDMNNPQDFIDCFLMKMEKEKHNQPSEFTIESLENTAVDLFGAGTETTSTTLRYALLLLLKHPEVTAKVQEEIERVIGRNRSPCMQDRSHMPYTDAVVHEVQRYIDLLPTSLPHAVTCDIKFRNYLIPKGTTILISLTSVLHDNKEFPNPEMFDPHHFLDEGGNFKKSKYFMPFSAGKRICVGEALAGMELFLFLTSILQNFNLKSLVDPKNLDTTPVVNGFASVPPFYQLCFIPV

## OC(Cn1cncn1)(Cn1cncn1)c1ccc(F)cc1F [Fluconazole]
CYP2C9
  Interactions: cytochrome P-450 isoform 2C9, substrate or inhibitor: Inhibitor
CYP3A
  Interactions: cytochrome P-450 isoform 3A, substrate or inhibitor: Inbibilor

## CN1CCCC(n2nc(Cc3ccc(Cl)cc3)c3ccccc3c2=O)CC1 (centres unmarked) [Azelastine]
[1]; Table 2, drug labeling
  QT: Yes

## N=C(N)c1ccc(OCCCCCOc2ccc(C(=N)N)cc2)cc1 [Pentamidine]
[2]; [3]
  TdP: Yes

## CCCCc1oc2ccccc2c1C(=O)c1cc(I)c(OCCN(CC)CC)c(I)c1 [Amiodarone]
[2]; [3]
  TdP: Yes
[2]; Table 3
  TdP: Yes

## C[C@]12CCC(=O)C=C1CC[C@H]1[C@@H]3CC[C@](O)(C(=O)CO)[C@@]3(C)C[C@H](O)[C@@]12F [Fludrocortisone]
[1]; Table 2, drug labeling
  QT: Yes

## CCOC(=O)Nc1ccc2c(c1)N(C(=O)CCN1CCOCC1)c1ccccc1S2 [Moricizine]
[2]; [3]
  TdP: Yes

## CC(C)N(CCC(C(N)=O)(c1ccccc1)c1ccccn1)C(C)C (centres unmarked) [Disopyramide]
[2]; [3]
  TdP: Yes
[1]; Table 2, drug labeling
  QT: Yes

## Cc1nc2n(c(=O)c1CCN1CCC(c3noc4cc(F)ccc34)CC1)CCCC2 [Risperidone]
[2]; [3]
  TdP: Yes
[2]; Table 3
  TdP: Yes
[1]; Table 2, drug labeling
  QT: Yes
[1]; Table 3
  QT: Yes

## CC(C)COCC(CN(Cc1ccccc1)c1ccccc1)N1CCCC1 (centres unmarked) [Bepridil]
[2]; [3]
  TdP: Yes
[1]; Table 2, drug labeling
  QT: Yes

## CCCCN(CCCC)CCC(O)c1cc2c(Cl)cc(Cl)cc2c2cc(C(F)(F)F)ccc12 (centres unmarked) [Halofantrine]
CYP2D6
  Interactions: cytochrome P-450 isoform 2D6, substrate or inhibitor: Inhibitor
[1]; Table 2, drug labeling
  QT: Yes
[1]; Table 3
  QT: Yes

## CN(C)CCCN1c2ccccc2Sc2ccc(Cl)cc21 [Chlorpromazine]
[2]; [3]
  TdP: Yes
[1]; Table 2, drug labeling
  QT: Yes

## CNCCCC1c2ccccc2C=Cc2ccccc21 [Protriptyline]
[1]; Table 2, drug labeling
  QT: Yes
[1]; Table 3
  QT: Yes

## CCN(CC)CCNC(=O)c1ccc(N)cc1 [Procainamide]
[1]; Table 2, drug labeling
  QT: Yes

## CC[C@H]1OC(=O)[C@H](C)[C@@H](O[C@H]2C[C@@](C)(OC)[C@@H](O)[C@H](C)O2)[C@H](C)[C@@H](O[C@@H]2O[C@H](C)C[C@H](N(C)C)[C@H]2O)[C@](C)(OC)C[C@@H](C)C(=O)[C@H](C)[C@@H](O)[C@]1(C)O [Clarithromycin]
[1]; Table 2, drug labeling
  QT: Yes
[1]; Table 3
  QT: Yes

## CN(C)CCc1c[nH]c2ccc(C[C@H]3COC(=O)N3)cc12 [Zolmitriptan]
[1]; Table 2, drug labeling
  QT: Yes

## CNCCC(Oc1ccc(C(F)(F)F)cc1)c1ccccc1 (centres unmarked) [Fluoxetine]
CYP2C19
  Interactions: cytochrome P-450 isoform 2C19, substrate or inhibitor: Inhibitor
[1]; Table 2, drug labeling
  QT: Yes
[1]; Table 3
  QT: Yes
CYP2C9
  Interactions: cytochrome P-450 isoform 2C9, substrate or inhibitor: Substrate
CYP3A
  Interactions: cytochrome P-450 isoform 3A, substrate or inhibitor: Inhibitor

## COc1cc(N)c(Cl)cc1C(=O)NC1CCN(CCCOc2ccc(F)cc2)CC1OC (centres unmarked) [Cisapride]
[2]; [3]
  TdP: Yes
[2]; Table 3
  TdP: Yes
[1]; Table 2, drug labeling
  QT: Yes
[1]; Table 3
  QT: Yes
CYP3A
  Interactions: cytochrome P-450 isoform 3A, substrate or inhibitor: Substrate

## CNCCCN1c2ccccc2CCc2ccccc21 [Desipramine]
CYP2D6
  Interactions: cytochrome P-450 isoform 2D6, substrate or inhibitor: Substrate
[1]; Table 2, drug labeling
  QT: Yes
[1]; Table 3
  QT: Yes

## CNS(=O)(=O)Cc1ccc2[nH]cc(CCN(C)C)c2c1 [Sumatriptan]
[1]; Table 2, drug labeling
  QT: Yes

## COC(=O)C1=C(C)NC(C)=C(C(=O)OC(C)C)C1c1cccc2nonc12 (centres unmarked) [Isradipine]
[1]; Table 2, drug labeling
  QT: Yes

## CCCCCCCN(CC)CCCC(O)c1ccc(NS(C)(=O)=O)cc1 (centres unmarked) [Ibutilide]
[2]; [3]
  TdP: Yes
[1]; Table 2, drug labeling
  QT: Yes
Healthy volunteers; 0.003 mg/kg intravenous single dose
  Duration of QTc prolonging effect: almost dissipated by the end of two hours
Healthy volunteers; men versus women by menstrual phase, p<0.05
  Mean QTc prolongation over time (AUC, 60 minutes after infusion): significantly smaller in men than in women; also recorded: significantly lower for women during the luteal phase and for men
Healthy volunteers; men, 0.003 mg/kg intravenous single dose
  Maximal change in QTc interval after infusion: 54 ± 28 ms
Healthy volunteers; women, luteal phase, 0.003 mg/kg intravenous single dose
  Maximal change in QTc interval after infusion: 53 ± 14 ms
Healthy volunteers; women, menstrual phase, 0.003 mg/kg intravenous single dose
  Maximal change in QTc interval after infusion: 63 ± 13 ms
Healthy volunteers; women, ovulation phase, 0.003 mg/kg intravenous single dose
  Maximal change in QTc interval after infusion: 59 ± 17 ms

## CN1CCN(CCCN2c3ccccc3Sc3ccc(C(F)(F)F)cc32)CC1 [Trifluoperazine]
[2]; [3]
  TdP: Yes
[1]; Table 2, drug labeling
  QT: Yes

## COc1ccc(CCN2CCC(Nc3nc4ccccc4n3Cc3ccc(F)cc3)CC2)cc1 [Astemizole]
[2]; [3]
  TdP: Yes
[2]; Table 3
  TdP: Yes
[1]; Table 2, drug labeling
  QT: Yes
[1]; Table 3
  QT: Yes
CYP3A
  Interactions: cytochrome P-450 isoform 3A, substrate or inhibitor: Substrate

## CNS(=O)(=O)CCc1ccc2[nH]cc(C3CCN(C)CC3)c2c1 [Naratriptan]
[1]; Table 2, drug labeling
  QT: Yes

## CN(C)CCCN1c2ccccc2CCc2ccccc21 [Imipramine]
[1]; Table 2, drug labeling
  QT: Yes
[1]; Table 3
  QT: Yes

## O=C(O)P(=O)(O)O [Foscarnet]
[1]; Table 2, drug labeling
  QT: Yes

## C=C[C@H]1C[N@@]2CC[C@H]1C[C@@H]2[C@@H](O)c1ccnc2ccc(OC)cc12 [Quinidine]
[2]; [3]
  TdP: Yes
[2]; Table 3
  TdP: Yes
[1]; Table 2, drug labeling
  QT: Yes
[1]; Table 3
  QT: Yes
CYP3A
  Interactions: cytochrome P-450 isoform 3A, substrate or inhibitor: Substrate

## CNCCC=C1c2ccccc2CCc2ccccc21 [Nortriptyline]
[1]; Table 2, drug labeling
  QT: Yes

## C[C@@H]1CN(c2c(F)c(N)c3c(=O)c(C(=O)O)cn(C4CC4)c3c2F)C[C@H](C)N1 [Sparfloxacin]
[2]; [3]
  TdP: Yes
[1]; Table 2, drug labeling
  QT: Yes

## CN1CCN(CC/C=C2/c3ccccc3Sc3ccc(S(=O)(=O)N(C)C)cc32)CC1 [Thiothixene]
[2]; [3]
  TdP: Yes
[1]; Table 2, drug labeling
  QT: Yes

## CCC(C)n1ncn(-c2ccc(N3CCN(c4ccc(OCC5COC(Cn6cncn6)(c6ccc(Cl)cc6Cl)O5)cc4)CC3)cc2)c1=O (centres unmarked) [Itraconazole]
CYP3A
  Interactions: cytochrome P-450 isoform 3A, substrate or inhibitor: Inhibitor

## CC(=O)N1CCN(c2ccc(OCC3COC(Cn4ccnc4)(c4ccc(Cl)cc4Cl)O3)cc2)CC1 (centres unmarked) [Ketoconazole]
CYP2C19
  Interactions: cytochrome P-450 isoform 2C19, substrate or inhibitor: Inhibitor
CYP3A
  Interactions: cytochrome P-450 isoform 3A, substrate or inhibitor: Inhibitor

## OCCN1CCN(CCCN2c3ccccc3Sc3ccc(Cl)cc32)CC1 [Perphenazine]
[1]; Table 2, drug labeling
  QT: Yes

## CC[C@H]1OC(=O)[C@H](C)[C@@H](O[C@H]2C[C@@](C)(OC)[C@@H](O)[C@H](C)O2)[C@H](C)[C@@H](O[C@@H]2O[C@H](C)C[C@H](N(C)C)[C@H]2O)[C@](C)(O)C[C@@H](C)C(=O)[C@H](C)[C@@H](O)[C@]1(C)O [Erythromycin]
[1]; Table 2, drug labeling
  QT: Yes
[1]; Table 3
  QT: Yes

## OCCOCCN1CCN(C2=Nc3ccccc3Sc3ccccc32)CC1 [Quetiapine]
[1]; Table 2, drug labeling
  QT: Yes

## Clc1ccc2c(c1)C(N1CCNCC1)=Nc1ccccc1O2 [Amoxapine]
[1]; Table 2, drug labeling
  QT: Yes

## CC1Cc2ccccc2N1NC(=O)c1ccc(Cl)c(S(N)(=O)=O)c1 (centres unmarked) [Indapamide]
[2]; [3]
  TdP: Maybe—
[1]; Table 2, drug labeling
  QT: Yes

## COc1ccc(C(CN(C)C)C2(O)CCCCC2)cc1 (centres unmarked) [Venlafaxine]
CYP2D6
  Interactions: cytochrome P-450 isoform 2D6, substrate or inhibitor: Substrate
[1]; Table 2, drug labeling
  QT: Yes
[1]; Table 3
  QT: Yes

## CC(C)NCC(O)c1ccc(NS(C)(=O)=O)cc1 (centres unmarked) [Sotalol]
[1]; Table 2, drug labeling
  QT: Yes

## COC(=O)C1=C(C)NC(C)=C(C(=O)OCCN(C)Cc2ccccc2)C1c1cccc([N+](=O)[O-])c1 (centres unmarked) [Nicardipine]
[1]; Table 2, drug labeling
  QT: Yes

## Cc1cccc(C)c1NC(=O)C(C)N (centres unmarked) [Tocainide]
[1]; Table 2, drug labeling
  QT: Yes

## O=C1NC(c2ccccc2)(c2ccccc2)C(=O)N1COP(=O)(O)O [Fosphenytoin]
[1]; Table 2, drug labeling
  QT: Yes

## OCc1cc(C(O)CNCCCCCCOCCCCc2ccccc2)ccc1O (centres unmarked) [Salmeterol]
[1]; Table 2, drug labeling
  QT: Yes

## CN1CCC[C@@H]1CCO[C@](C)(c1ccccc1)c1ccc(Cl)cc1 [Clemastine]
[2]; [3]
  TdP: Maybe—
[2]; Table 3
  TdP: Maybe—

## CNCCCC12CCC(c3ccccc31)c1ccccc12 [Maprotiline]
[2]; [3]
  TdP: Yes
[1]; Table 2, drug labeling
  QT: Yes

## OCCN1CCN(CCCN2c3ccccc3Sc3ccc(C(F)(F)F)cc32)CC1 [Fluphenazine]
[2]; [3]
  TdP: Yes
[2]; Table 3
  TdP: Yes
[1]; Table 2, drug labeling
  QT: Yes
[1]; Table 3
  QT: Yes

## NC(=O)OCC(COC(N)=O)c1ccccc1 [Felbamate]
CYP2C19
  Interactions: cytochrome P-450 isoform 2C19, substrate or inhibitor: Inhibitor
[2]; [3]
  TdP: Yes
[2]; Table 3
  TdP: Yes
[1]; Table 2, drug labeling
  QT: Yes?
[1]; Table 3
  QT: Yes

## O=c1[nH]c2ccccc2n1C1CCN(CCCC(c2ccc(F)cc2)c2ccc(F)cc2)CC1 [Pimozide]
[2]; [3]
  TdP: Yes
[1]; Table 2, drug labeling
  QT: Yes

## O=C(NCC1CCCCN1)c1cc(OCC(F)(F)F)ccc1OCC(F)(F)F (centres unmarked) [Flecainide]
CYP2D6
  Interactions: cytochrome P-450 isoform 2D6, substrate or inhibitor: Substrate
[1]; Table 2, drug labeling
  QT: Yes
[1]; Table 3
  QT: Yes

## Clc1ccc2nsnc2c1NC1=NCCN1 [Tizanidine]
[1]; Table 2, drug labeling
  QT: Yes

## CN(C)CCC=C1c2ccccc2COc2ccccc21 [Doxepin]
[2]; [3]
  TdP: Yes
[1]; Table 2, drug labeling
  QT: Yes
